In PubChem BioAssay (NCI):
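Each compound was tested at five concentrations against cells in 96-well plates for 48 hours. At the GI50, growth is halved. Definition used: TGI = concentration required for complete inhibition of growth.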

Experiments:
Assay in all cases: DTP human tumour cell line panel, 48 h
786-0 renal = test system: 786-0 renal
A498 renal = test system: A498 renal
A549 NSCLC = test system: A549 NSCLC
ACHN renal = test system: ACHN renal
BT-549 breast = test system: BT-549 breast
CAKI-1 renal = test system: CAKI-1 renal
CCRF-CEM leukemia = test system: CCRF-CEM leukemia
COLO 205 colon = test system: COLO 205 colon
DU-145 prostate = test system: DU-145 prostate
EKVX NSCLC = test system: EKVX NSCLC
HCC-2998 colon = test system: HCC-2998 colon
HCT-116 colon = test system: HCT-116 colon
HCT-15 colon = test system: HCT-15 colon
HL-60(TB) leukemia = test system: HL-60(TB) leukemia
HOP-62 NSCLC = test system: HOP-62 NSCLC
HOP-92 NSCLC = test system: HOP-92 NSCLC
HS 578T breast = test system: HS 578T breast
HT29 colon = test system: HT29 colon
IGROV1 ovarian = test system: IGROV1 ovarian
K-562 leukemia = test system: K-562 leukemia
KM12 colon = test system: KM12 colon
LOX IMVI melanoma = test system: LOX IMVI melanoma
M14 melanoma = test system: M14 melanoma
MCF7 breast = test system: MCF7 breast
MDA-MB-231 breast = test system: MDA-MB-231 breast
MDA-MB-435 = test system: MDA-MB-435
MOLT-4 leukemia = test system: MOLT-4 leukemia
NCI-H226 lung = test system: NCI-H226 lung
NCI-H23 lung = test system: NCI-H23 lung
NCI-H460 lung = test system: NCI-H460 lung
NCI-H522 lung = test system: NCI-H522 lung
NCI/ADR-RES ovarian = test system: NCI/ADR-RES ovarian
OVCAR-3 ovarian = test system: OVCAR-3 ovarian
OVCAR-4 ovarian = test system: OVCAR-4 ovarian
OVCAR-5 ovarian = test system: OVCAR-5 ovarian
OVCAR-8 ovarian = test system: OVCAR-8 ovarian
PC-3 prostate = test system: PC-3 prostate
RPMI-8226 leukemia = test system: RPMI-8226 leukemia
RXF 393 renal = test system: RXF 393 renal
SF-268 CNS = test system: SF-268 CNS
SF-295 CNS = test system: SF-295 CNS
SF-539 CNS = test system: SF-539 CNS
SK-MEL-2 melanoma = test system: SK-MEL-2 melanoma
SK-MEL-28 melanoma = test system: SK-MEL-28 melanoma
SK-MEL-5 melanoma = test system: SK-MEL-5 melanoma
SK-OV-3 ovarian = test system: SK-OV-3 ovarian
SN12C renal = test system: SN12C renal
SNB-19 CNS = test system: SNB-19 CNS
SNB-75 CNS = test system: SNB-75 CNS
SR leukemia = test system: SR leukemia
SW-620 colon = test system: SW-620 colon
T-47D breast = test system: T-47D breast
TK-10 renal = test system: TK-10 renal
U251 CNS = test system: U251 CNS
UACC-257 melanoma = test system: UACC-257 melanoma
UO-31 renal = test system: UO-31 renal

SMILES: CNC(=O)Cc1nc(-c2cccc(NS(=O)(=O)c3c(F)cccc3F)c2F)c(-c2ccnc(Nc3ccccc3)n2)s1
- GI50 (786-0 renal): 10.1 µM
- TGI (786-0 renal): > 50 µM
- GI50 (A498 renal): 2.6 µM
- TGI (A498 renal): 18.5 µM
- GI50 (A549 NSCLC): 8.53 µM
- TGI (A549 NSCLC): > 50 µM
- GI50 (ACHN renal): 0.889 µM
- TGI (ACHN renal): > 50 µM
- GI50 (BT-549 breast): > 35.8 µM
- TGI (BT-549 breast): > 50 µM
- GI50 (CAKI-1 renal): 0.385 µM
- TGI (CAKI-1 renal): > 50 µM
- GI50 (CCRF-CEM leukemia): 11.3 µM
- TGI (CCRF-CEM leukemia): > 50 µM
- GI50 (COLO 205 colon): 0.0188 µM
- TGI (COLO 205 colon): > 30.2 µM
- GI50 (DU-145 prostate): 12.6 µM
- TGI (DU-145 prostate): > 50 µM
- GI50 (EKVX NSCLC): 22.4 µM
- TGI (EKVX NSCLC): > 50 µM
- GI50 (HCC-2998 colon): 7.94 µM
- TGI (HCC-2998 colon): 28.1 µM
- GI50 (HCT-116 colon): 1.05 µM
- TGI (HCT-116 colon): > 29.2 µM
- GI50 (HCT-15 colon): 7.37 µM
- TGI (HCT-15 colon): > 50 µM
- GI50 (HL-60(TB) leukemia): 3.96 µM
- TGI (HL-60(TB) leukemia): > 50 µM
- GI50 (HOP-62 NSCLC): 3.27 µM
- TGI (HOP-62 NSCLC): > 50 µM
- GI50 (HOP-92 NSCLC): 0.355 µM
- TGI (HOP-92 NSCLC): > 14.4 µM
- GI50 (HS 578T breast): 0.482 µM
- TGI (HS 578T breast): 43.7 µM
- GI50 (HT29 colon): 0.0327 µM
- TGI (HT29 colon): > 50 µM
- GI50 (IGROV1 ovarian): 0.462 µM
- TGI (IGROV1 ovarian): > 19.6 µM
- GI50 (K-562 leukemia): 1.09 µM
- TGI (K-562 leukemia): > 50 µM
- GI50 (KM12 colon): 14.2 µM
- TGI (KM12 colon): > 50 µM
- GI50 (LOX IMVI melanoma): 0.0917 µM
- TGI (LOX IMVI melanoma): 5.38 µM
- GI50 (M14 melanoma): 0.0108 µM
- TGI (M14 melanoma): 6.58 µM
- GI50 (MCF7 breast): 19.1 µM
- TGI (MCF7 breast): > 50 µM
- GI50 (MDA-MB-231 breast): 1.04 µM
- TGI (MDA-MB-231 breast): > 15.3 µM
- GI50 (MDA-MB-435): 0.0445 µM
- TGI (MDA-MB-435): > 44 µM
- GI50 (MOLT-4 leukemia): 12.5 µM
- TGI (MOLT-4 leukemia): > 50 µM
- GI50 (NCI-H226 lung): 8.73 µM
- TGI (NCI-H226 lung): > 50 µM
- GI50 (NCI-H23 lung): 4.42 µM
- TGI (NCI-H23 lung): > 50 µM
- GI50 (NCI-H460 lung): 14.8 µM
- TGI (NCI-H460 lung): > 50 µM
- GI50 (NCI-H522 lung): 7.22 µM
- TGI (NCI-H522 lung): > 50 µM
- GI50 (NCI/ADR-RES ovarian): > 50 µM
- TGI (NCI/ADR-RES ovarian): > 50 µM
- GI50 (OVCAR-3 ovarian): 12.9 µM
- TGI (OVCAR-3 ovarian): > 50 µM
- GI50 (OVCAR-4 ovarian): > 33.8 µM
- TGI (OVCAR-4 ovarian): > 50 µM
- GI50 (OVCAR-5 ovarian): 2.85 µM
- TGI (OVCAR-5 ovarian): > 50 µM
- GI50 (OVCAR-8 ovarian): 7.32 µM
- TGI (OVCAR-8 ovarian): > 50 µM
- GI50 (PC-3 prostate): 20.9 µM
- TGI (PC-3 prostate): > 50 µM
- GI50 (RPMI-8226 leukemia): 14.3 µM
- TGI (RPMI-8226 leukemia): > 47.9 µM
- GI50 (RXF 393 renal): 0.181 µM
- TGI (RXF 393 renal): 2.84 µM
- GI50 (SF-268 CNS): 6.98 µM
- TGI (SF-268 CNS): > 50 µM
- GI50 (SF-295 CNS): 20.5 µM
- TGI (SF-295 CNS): > 50 µM
- GI50 (SF-539 CNS): 10.9 µM
- TGI (SF-539 CNS): > 50 µM
- GI50 (SK-MEL-2 melanoma): 0.419 µM
- TGI (SK-MEL-2 melanoma): > 46 µM
- GI50 (SK-MEL-28 melanoma): 0.0185 µM
- TGI (SK-MEL-28 melanoma): > 50 µM
- GI50 (SK-MEL-5 melanoma): 0.0866 µM
- TGI (SK-MEL-5 melanoma): > 19.8 µM
- GI50 (SK-OV-3 ovarian): 0.558 µM
- TGI (SK-OV-3 ovarian): 27.9 µM
- GI50 (SN12C renal): 1.71 µM
- TGI (SN12C renal): > 50 µM
- GI50 (SNB-19 CNS): 14.3 µM
- TGI (SNB-19 CNS): > 50 µM
- GI50 (SNB-75 CNS): 0.6 µM
- TGI (SNB-75 CNS): 49.8 µM
- GI50 (SR leukemia): 8.07 µM
- TGI (SR leukemia): > 50 µM
- GI50 (SW-620 colon): 9.54 µM
- TGI (SW-620 colon): > 50 µM
- GI50 (T-47D breast): 6.23 µM
- TGI (T-47D breast): > 41.1 µM
- GI50 (TK-10 renal): 3.02 µM
- TGI (TK-10 renal): > 40.7 µM
- GI50 (U251 CNS): 22.7 µM
- TGI (U251 CNS): > 50 µM
- GI50 (UACC-257 melanoma): 0.0142 µM
- GI50 (UO-31 renal): 1.22 µM
- TGI (UO-31 renal): 13.7 µM
